Results as given in patent publication US7696148B1, “Administration of products of the 5-lipoxygenase metabolic pathway to enhance antimicrobial defense” (Board of Trustees of Michigan State University, priority 1996, dated 2010).
Read-outs that look alike come from different tables or passages of the source.

What was measured:
[1] = administered orally to rats; cited from earlier work
[2] = in vivo bronchoscopic instillation into the human lung; cited from earlier work
[3] = 6 ng intratracheally per animal, 6 hours after administration, mice; cited from earlier work
[4] = system: normal rat alveolar macrophages; test: Phagocytosis of K. pneumoniae by normal rat alveolar macrophages (phagocytic index); type: cell-based, Wistar rats
Procedure: (§1) For assays of bacterial phagocytosis and killing, alveolar macrophages were purified from bronchoalveolar lavage cells by adherence for 1 hour in HBSS and studied in monolayer culture. Adherent cells were preincubated with 5% K. pneumoniae-specific immune serum (as a source of both complement and specific opsonizing antibody) for 5 minutes at 37° C. prior to assays. Phagocytosis was studied by incubating 10^5 alveolar macrophages with 10^6 K. pneumoniae in each well of an 8-well Labtek® plate (Nunc) for 1 hour at 37° C.; in some experiments, exogenous LTB4 (Cayman) was added concomitantly with bacteria. The supernatants were aspirated and the cells were washed 3 times with HBSS. The slides were then allowed to air dry, Diff-Quik® (Difco) staining was performed, and 200 cells per well were counted to determine number of intracellular K. pneumoniae and percent of alveolar macrophages containing bacteria. Phagocytic index was calculated as the mean percentage of alveolar macrophages containing bacteria multiplied by the mean number of bacteria per alveolar macrophage.
Alveolar macrophages from Wistar rats were adhered and then incubated for 1 hour with K. pneumoniae alone or in the presence of 1 nM of several 5-LO metabolites (LTB4, LTC4, and 5-HETE). Phagocytic index was subsequently determined as described above in the General Methods.
A related experiment was also performed to determine if the ability of exogenous LTB4 to enhance bacterial phagocytosis is mediated by its interaction with LTB4 receptors. This experiment was based on the fact that pretreatment with LTB4 desensitizes cells to subsequent LTB4 responsiveness; though an understanding of the mechanism of this effect is not required to practice the present invention, the desensitization is believed to occur by down-regulating receptor expression or coupling. For this experiment, cells were pretreated with LTB4 (1 nM) for 1 hour, washed, and incubated with bacteria plus LTB4.

peritoneal macrophages = details: cited from earlier work
[5] = system: neutrophils from 5-LO knockout mice; test: Phagocytosis of K. pneumoniae by glycogen-elicited peritoneal neutrophils from 5-LO knockout mice; type: cell-based, mouse; details: 1 nM LTB4, one hour
Procedure: as §1
To obtain peritoneal elicited neutrophils, mice are injected intraperitoneally with 5% glycogen in PBS and peritoneal lavage is performed 5 hours later. Approximately 3×10^6 cells are obtained from each animal, approximately 85-90% of which are neutrophils. These cells are likewise placed into culture for functional studies. […]

[6] = system: alveolar macrophages from 5-LO knockout mice; test: Phagocytosis of K. pneumoniae by alveolar macrophages from 5-LO knockout mice (phagocytic index); type: cell-based, mouse; details: 5-LO knockout alveolar macrophages
Procedure: as §1
Cultured alveolar macrophages from knockout mice were incubated in the presence of specific serum for 1 hour with K. pneumoniae alone or in the presence of varying doses of LTB4. Phagocytic index was calculated as described in the General Methods. FIG. 6 graphically depicts the effect of exogenous LTB4 (none, 0.1 nM, and 5 nM LTB4 added) on bacterial phagocytic activity in alveolar macrophages from 5-LO KO mice; each value represents the mean from triplicate cultures. […] Though not required in order to practice the present invention, it is believed that neutrophils manifest similar functional defects in phagocytosis and killing which could contribute to the sensitivity to bacterial pneumonia seen in knockout mice in vivo.

Schistosoma mansoni = details: neutrophils; cited from earlier work
K. pneumoniae = test: Pulmonary bacterial clearance (lung homogenate CFU) after intratracheal K. pneumoniae challenge in 5-LO knockout mice; type: in vivo, mouse
Procedure: K. pneumoniae strain 43816, serotype 2 obtained from the ATCC (Assession No. 29939) was grown in tryptic soy broth (Difco) for 18 hours at 37° C. The preparation and intratracheal administration of K. pneumoniae were carried out as described by M. Schneemann et al. [J. Infect. Dis. 167:1358-1363 (1993)]. Bacterial concentration was determined by measuring absorbance at 600 nm and referencing to a standard curve of absorbances vs. known standard CFUs. Bacteria were then pelleted by centrifugation for 30 min at 10,000 rpm, washed ×2 in saline, and resuspended at the desired concentration in saline.
After appropriate dilution of bacteria in endotoxin-free saline, animals were anesthetized with sodium pentobarbital (approximately 0.2 mL diluted 1:7 in saline intraperitoneally) and the trachea was exposed via a small midline incision. […]
Plasma and lung CFU were determined as described by M. Schneemann et al. [J. Infect. […]
LTB4 was administered together with the intratracheal inoculum of K. pneumoniae (50 CFU). […] Second, the present inventors previously found (see FIG. 5) that approximately 7 ng of total LTB4 could be measured in the homogenate of a pair of lungs from Klebsiella-challenged wild type mice. […] Following 24 hours of bacterial inoculation, lungs were harvested and lung homogenate CFUs were determined.

S. typhimurium = details: intraperitoneal injection; cited from earlier work
[7] = mice, once-daily oral dose; cited from earlier work
5-LO = target: T1, 5-LO (Mus musculus, UniProt P48999); details: once-daily oral agent; cited from earlier work
T1 construct: from tissue; host or cells: whole animal: wild type mice (129/SvEv, The Jackson Laboratory)
T1 sequence (P48999 1-674): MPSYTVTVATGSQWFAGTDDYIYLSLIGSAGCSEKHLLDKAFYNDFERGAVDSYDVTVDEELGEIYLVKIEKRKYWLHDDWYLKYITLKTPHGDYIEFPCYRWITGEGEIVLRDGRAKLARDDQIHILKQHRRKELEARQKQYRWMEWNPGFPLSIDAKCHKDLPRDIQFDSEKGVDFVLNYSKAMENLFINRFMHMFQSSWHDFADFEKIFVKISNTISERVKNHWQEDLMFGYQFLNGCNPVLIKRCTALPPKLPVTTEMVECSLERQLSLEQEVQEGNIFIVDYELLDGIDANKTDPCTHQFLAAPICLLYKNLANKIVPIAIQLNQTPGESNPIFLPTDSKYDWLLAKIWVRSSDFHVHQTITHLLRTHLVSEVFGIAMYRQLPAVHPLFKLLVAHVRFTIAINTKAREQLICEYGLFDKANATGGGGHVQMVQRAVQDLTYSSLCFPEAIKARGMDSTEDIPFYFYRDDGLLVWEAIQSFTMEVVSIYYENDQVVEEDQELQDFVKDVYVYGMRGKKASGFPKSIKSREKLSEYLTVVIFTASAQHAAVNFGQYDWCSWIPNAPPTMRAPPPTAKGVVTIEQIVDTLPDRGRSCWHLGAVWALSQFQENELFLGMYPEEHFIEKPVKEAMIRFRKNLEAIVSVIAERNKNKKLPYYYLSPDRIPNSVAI

[8] = normal rat alveolar macrophages, 1 nM, 1 hour with K. pneumoniae

Question: Which “antigen-induced bronchoconstriction” value [1] does the source give for `CN(C)C(=O)CCSC(SCCC(=O)O)c1cccc(/C=C/c2ccc3ccc(Cl)cc3n2)c1` (stereo not drawn) [MK-571] here?
Answer: Its value is “effectively inhibited antigen-induced bronchoconstriction”.

Question: What does the source list for `CCCCC/C=C\C[C@@H](O)/C=C/C=C/C=C\[C@@H](O)CCCC(=O)O` [LTB4, leukotriene B4]?
Answer: neutrophil influx [2]: resulted in neutrophil influx; neutrophil influx [3]: brisk neutrophil influx; effect of LTB4 pretreatment on LTB4-augmented phagocytosis ([4]; cells pretreated with LTB4 1 nM for 1 hour, washed, then bacteria plus LTB4 1 nM): almost completely abrogated; increase in phagocytic index [4, 8]: approximately 6 fold; in vitro phagocytosis and killing of P. aeruginosa and Salmonella typhimurium (peritoneal macrophages): enhanced the in vitro phagocytosis and killing; phagocytic index [5]: 27±8; phagocytic index relative to baseline level ([6]; 5 nM LTB4, 1 hour with K. pneumoniae, specific serum): approximately three; increase of phagocytic index ([6]; exogenous LTB4): approximately 300%; effect on phagocytic index ([6]; none, 0.1 nM and 5 nM LTB4): dose-dependently enhanced the phagocytic index; in vitro killing of Schistosoma mansoni (Schistosoma mansoni): enhanced; effect on in vivo bacterial clearance (K. pneumoniae; intrapulmonary administration): partially overcame the in vivo impairment in bacterial clearance; reduction of lung CFU (K. pneumoniae; single 6 ng intratracheal dose with 50 CFU inoculum, 24 hours): approximately 10 fold; in vivo clearance of S. typhimurium (S. typhimurium): enhanced the in vivo clearance

Question: For `O=C(O)C1(c2ccc3c(c2)OC[C@H](Cc2ccc(-c4ccccc4)cc2)[C@H]3O)CCCC1` [CP-105,696], which “collagen-induced arthritis” value [7] is on record?
Answer: The value was “inhibited collagen-induced arthritis”.

Question: For `CCCCC/C=C\C/C=C\C/C=C\C=C\[C@@H](O)CCCC(=O)O` [5-HETE], which “effect on phagocytic index” value [4, 8] is on record?
Answer: The value was “similar, though less pronounced, effect”.

Question: With `C[C@H](C#Cc1ccc(Oc2ccc(F)cc2)o1)N(O)C(N)=O` [A-79175] as the compound, how does the “efficacy in mice” value (5-LO) read?
Answer: The value was “demonstrated efficacy in mice”.

Question: Which “effect on phagocytic index” value [4, 8] does the source give for `CCCCC/C=C\C\C=C/C=C/C=C/[C@@H](SC[C@H](NC(=O)CC[C@H](N)C(=O)O)C(=O)NCC(=O)O)[C@@H](O)CCCC(=O)O` [LTC4, leukotriene C4] here?
Answer: The value was “augmented phagocytosis to a degree similar to LTB4”.
